Reference: ChEMBL document CHEMBL5608247, “Development of a First-in-Class DNMT1/HDAC Inhibitor with Improved Therapeutic Potential and Potentiated Antitumor Immunity” (J Med Chem, 2024)
Activity calls are given as the source filed them. No cut-off for these calls is given here.

What was measured:
MC-38 [1] = assay: Antitumor activity against mouse MC38 cells allografted in immunodeficient BALB/c nude mouse at 30 mg/kg, ip qd for 15 days in presence of SAHA relative to control; type: functional; details: MC-38, 360 h, time 15 day, read-out: TGI
Kasumi 1 = assay: Inhibition of cell viability in human Kasumi 1 cells incubated for 4 days in presence of SAHA by CCK8 assay; type: functional, cell-based; details: Kasumi 1, 96 h
MC-38 [2] = assay: Immunomodulatory activity in mouse MC38 cells allografted in mouse assessed as inhibition of pro-tumor M2 polarization at 30 mg/kg, ip qd in presence of SAHA; type: functional, organism-based
[3] = target: T1, DNA (cytosine-5)-methyltransferase 1 (Homo sapiens, UniProt P26358); assay: Inhibition of DNMT1 in human MV4-11 cells at 1 uM incubated for 6 hrs in presence of CQ by Western blot analysis; type: cell-based
T1 sequence (P26358 whole entry): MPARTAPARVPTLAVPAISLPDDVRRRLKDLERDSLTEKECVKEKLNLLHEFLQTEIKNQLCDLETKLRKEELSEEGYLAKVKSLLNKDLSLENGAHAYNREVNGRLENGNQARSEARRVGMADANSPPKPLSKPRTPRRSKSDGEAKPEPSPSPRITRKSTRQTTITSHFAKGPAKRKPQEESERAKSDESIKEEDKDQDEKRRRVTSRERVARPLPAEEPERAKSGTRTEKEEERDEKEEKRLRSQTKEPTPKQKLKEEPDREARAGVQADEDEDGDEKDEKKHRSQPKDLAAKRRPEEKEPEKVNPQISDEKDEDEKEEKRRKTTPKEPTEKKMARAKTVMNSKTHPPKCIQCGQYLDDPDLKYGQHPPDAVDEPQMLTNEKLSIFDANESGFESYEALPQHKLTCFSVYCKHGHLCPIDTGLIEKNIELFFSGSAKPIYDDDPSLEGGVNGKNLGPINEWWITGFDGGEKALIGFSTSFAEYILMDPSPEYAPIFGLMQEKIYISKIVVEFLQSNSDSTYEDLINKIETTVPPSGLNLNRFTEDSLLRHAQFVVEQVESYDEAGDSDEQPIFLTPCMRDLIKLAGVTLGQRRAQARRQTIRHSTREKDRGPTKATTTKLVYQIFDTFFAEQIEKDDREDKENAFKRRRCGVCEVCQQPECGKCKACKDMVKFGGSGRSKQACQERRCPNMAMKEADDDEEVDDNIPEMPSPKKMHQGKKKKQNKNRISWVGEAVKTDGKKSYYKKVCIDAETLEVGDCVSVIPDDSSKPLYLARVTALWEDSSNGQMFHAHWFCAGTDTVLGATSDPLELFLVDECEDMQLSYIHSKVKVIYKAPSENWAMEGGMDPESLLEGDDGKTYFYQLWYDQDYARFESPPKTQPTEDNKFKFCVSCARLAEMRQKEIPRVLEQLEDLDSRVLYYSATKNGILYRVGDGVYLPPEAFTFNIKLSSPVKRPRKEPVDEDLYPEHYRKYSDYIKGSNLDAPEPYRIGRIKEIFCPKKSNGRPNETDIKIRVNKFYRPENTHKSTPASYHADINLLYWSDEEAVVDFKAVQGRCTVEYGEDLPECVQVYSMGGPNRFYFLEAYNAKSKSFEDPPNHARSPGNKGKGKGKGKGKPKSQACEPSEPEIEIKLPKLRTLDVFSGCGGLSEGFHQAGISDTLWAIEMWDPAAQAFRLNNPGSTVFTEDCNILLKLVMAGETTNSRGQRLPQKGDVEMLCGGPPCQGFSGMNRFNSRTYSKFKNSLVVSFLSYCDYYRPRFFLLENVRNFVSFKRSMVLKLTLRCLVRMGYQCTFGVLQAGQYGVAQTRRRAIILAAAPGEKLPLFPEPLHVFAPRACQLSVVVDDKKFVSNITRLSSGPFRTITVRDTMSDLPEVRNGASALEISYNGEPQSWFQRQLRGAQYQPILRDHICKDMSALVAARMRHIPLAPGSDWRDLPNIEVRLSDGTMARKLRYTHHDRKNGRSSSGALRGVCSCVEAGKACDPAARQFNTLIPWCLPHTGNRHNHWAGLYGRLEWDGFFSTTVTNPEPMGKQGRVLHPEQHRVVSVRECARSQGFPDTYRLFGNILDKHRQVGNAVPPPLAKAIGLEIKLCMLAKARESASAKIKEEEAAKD

MC-38 [4] = assay: Immunomodulatory activity in mouse MC38 cells allografted in mouse assessed as polarization of macrophages towards tumor -suppressing M1 phenotype at 30 mg/kg, ip qd in presence of SAHA; type: functional, organism-based
[5] = Toxicity in immunodeficient BALB/c nude mouse allografted with mouse MC38 cells assessed as drug tolerance at 30 mg/kg, ip qd for 15 days in presence of SAHA; type: organism-based, MC-38; details: in vivo, 360 h, time 15 day
[6] = target: T1, DNA (cytosine-5)-methyltransferase 1; assay: Synergistic inhibition of DNMT1 in human MV4-11 cells at 100 nM incubated for 2 days in presence of SAHA by RNA-Seq analysis; type: cell-based; details: time 2.0 day
MV4-11 [7] = assay: Downregulation of GPR183 expression in human MV4-11 cells at 100 nM incubated for 2 days in presence of SAHA by RNA-Seq analysis; type: functional, cell-based; details: time 2.0 day
MV4-11 [8] = assay: Downregulation of MYC expression in human MV4-11 cells at 100 nM incubated for 2 days in presence of SAHA by RNA-Seq analysis; type: functional, cell-based; details: time 2.0 day
MV4-11 [9] = assay: Downregulation of GLIS2 expression in human MV4-11 cells at 100 nM incubated for 2 days in presence of SAHA by RNA-Seq analysis; type: functional, cell-based; details: time 2.0 day
MV4-11 [10] = assay: Upregulation of S100A16 expression in human MV4-11 cells at 100 nM incubated for 2 days in presence of SAHA by RNA-Seq analysis; type: functional, cell-based; details: time 2.0 day
[11] = Toxicity in BALB/c nude mouse xenografted with human MV4-11 cells assessed as body weight loss at 30 mg/kg, ip qd for 27 days in presence of SAHA; type: organism-based; details: in vivo, 648 h, time 27 day
[12] = target: T1, DNA (cytosine-5)-methyltransferase 1; assay: Inhibition of DNMT1 in human MV4-11 cells at 1 uM incubated for 6 hrs in presence of Z-VAD-FMK by Western blot analysis; type: cell-based
HL-60 = assay: Inhibition of cell viability in human HL-60 cells incubated for 4 days in presence of SAHA by CCK8 assay; type: functional, cell-based; details: HL-60, 96 h
[13] = Toxicity in BALB/c nude mouse xenografted with human MV4-11 cells assessed as animal fatality at 45 mg/kg, ip qd treated for 19 days; type: organism-based; details: in vivo, 456 h, time 19 day
MC-38 [14] = assay: Upregulation of Isg15 mRNA level in mouse MC38 cells at 1 to 3 uM incubated for 3 days in presence of SAHA by qRT-PCR analysis; type: functional, cell-based; details: dose 1-3 µM, time 3.0 day
[15] = target: T1, DNA (cytosine-5)-methyltransferase 1; assay: Inhibition of DNMT1 in human MV4-11 cells at 1 uM incubated for 6 hrs in presence of MG132 by Western blot analysis; type: cell-based
[16] = Toxicity in immunodeficient BALB/c nude mouse allografted with mouse MC38 cells assessed as body weight loss at 30 mg/kg, ip qd for 15 days in presence of SAHA; type: organism-based, MC-38; details: in vivo, 360 h, time 15 day
MV4-11 [17] = assay: Antitumor activity against human MV4-11 cells xenografted in BALB/c nude mouse at 30 mg/kg, ip qd for 27 days in presence of SAHA relative to control; type: functional; details: MV4-11, 648 h, time 27 day, read-out: TGI
MC-38 [18] = assay: Upregulation of IAPEz mRNA level in mouse MC38 cells at 1 to 3 uM incubated for 3 days in presence of SAHA by qRT-PCR analysis; type: functional, cell-based; details: dose 1-3 µM, time 3.0 day
MV4-11 [19] = assay: Antiproliferative activity against human MV4-11 cells incubated for 96 hrs by CCK8 assay; type: functional, cell-based; details: MV4-11, 96 h
MV4-11 [20] = assay: Antitumor activity against human MV4-11 cells xenografted in BALB/c nude mouse at 45 mg/kg, ip qd treated for 19 days relative to control; type: functional; details: MV4-11, 456 h, time 19 day, read-out: TGI
[21] = target: T1, DNA (cytosine-5)-methyltransferase 1; assay: Inhibition of DNMT1 in human HL-60 cells at 1 uM incubated for 6 hrs in presence of Z-VAD-FMK by Western blot analysis; type: cell-based
MC-38 [22] = assay: Immunomodulatory activity in mouse MC38 cells allografted in mouse assessed as accumulation of NKT cells at 30 mg/kg, ip qd in presence of SAHA; type: functional, organism-based
[23] = Inhibition of cell viability in human HSPC cells incubated for 4 days in presence of SAHA by CCK8 assay; type: toxicity, cell-based
MC-38 [24] = assay: Immunomodulatory activity in mouse MC38 cells allografted in mouse assessed as accumulation of T cells at 30 mg/kg, ip qd in presence of SAHA; type: functional, organism-based
[25] = target: T1, DNA (cytosine-5)-methyltransferase 1; assay: Inhibition of DNMT1 in human HL-60 cells at 1 uM incubated for 6 hrs in presence of MG132 by Western blot analysis; type: cell-based
MV4-11 [26] = assay: Inhibition of cell viability in human MV4-11 cells incubated for 4 days in presence of SAHA by CCK8 assay; type: functional, cell-based; details: MV4-11, 96 h
MV4-11 [27] = assay: Upregulation of p57 expression in human MV4-11 cells at 100 nM incubated for 2 days in presence of SAHA by RNA-Seq analysis; type: functional, cell-based; details: time 2.0 day
[28] = target: T1, DNA (cytosine-5)-methyltransferase 1; assay: Inhibition of DNMT1 in human MV4-11 cells assessed as ABT1 promoter methylation at 300 nM incubated for 3 days by Bisulfite Sequencing PCR analysis (reference value: 99.3 %); type: cell-based; set-up: scale not given: the % may be the effect or the level left; details: time 3.0 day
[29] = target: T1, DNA (cytosine-5)-methyltransferase 1; assay: Induction of thermal stabilization of N-terminal 6xHis-FLAG-tagged […] human DNMT1 (698 to 1616 residues) extracted from Sf9 cells assessed as change in melting temperature at 10 uM by SYPRO Orange dye based PTS assay (reference value: 0.0 degreeC); type: cell-based
[30] = target: T1, DNA (cytosine-5)-methyltransferase 1; assay: Inhibition of DNMT1 in human HL-60 cells at 1 uM incubated for 6 hrs in presence of CQ by Western blot analysis; type: cell-based
[31] = Toxicity in BALB/c nude mouse xenografted with human MV4-11 cells assessed as body weight loss at 45 mg/kg, ip qd treated for 19 days; type: organism-based; details: in vivo, 456 h, time 19 day
MV4-11 [32] = assay: Downregulation of FOXH1 expression in human MV4-11 cells at 100 nM incubated for 2 days in presence of SAHA by RNA-Seq analysis; type: functional, cell-based; details: time 2.0 day
MC-38 [33] = assay: Immunomodulatory activity in mouse MC38 cells allografted in mouse assessed as increase in IFN-gamma-positive cells at 30 mg/kg, ip qd in presence of SAHA; type: functional, organism-based
[34] = target: Histone deacetylase (Homo sapiens) (UniProt Q13547+O15379+Q9UBN7+Q92769+Q9UQL6+Q8WUI4+Q9BY41+Q96DB2+P56524+Q9UKV0+Q969S8); assay: Inhibition of HDAC in human MV4-11 cells at 100 nM incubated for 2 days in presence of SAHA by RNA-Seq analysis; type: cell-based; details: time 2.0 day
MV4-11 [35] = assay: Upregulation of BLK expression in human MV4-11 cells at 100 nM incubated for 2 days in presence of SAHA by RNA-Seq analysis; type: functional, cell-based; details: time 2.0 day
MC-38 [36] = assay: Upregulation of Oas2 mRNA level in mouse MC38 cells at 1 to 3 uM incubated for 3 days in presence of SAHA by qRT-PCR analysis; type: functional, cell-based; details: dose 1-3 µM, time 3.0 day

In the case of `CCc1c(C#N)c(SC(C(N)=O)c2ccccc2)nc(N2CCC(N)CC2)c1C#N` (stereo not drawn), the inhibition in vivo at 30 mg/kg (MC-38 [1]) is reported as 24%, the IC50 (Kasumi 1) is reported as 380 nM and the inhibition (MC-38 [2]) is reported as “Active”. The inhibition [3] was “Active”, the Activity (MC-38 [4]) was “Active” and the Activity [5] was “Non-Toxic”. For the same compound, the inhibition [6] was “Active”, the Activity (MV4-11 [7]) was “Active” and the Activity (MV4-11 [8]) was “Active”. The Activity (MV4-11 [9]) was “Active”, the Activity (MV4-11 [10]) was “Active” and the Activity [11] was “Toxic”. The inhibition [12] was “Active”, the IC50 (HL-60) was 320 nM and the Activity [13] was “Toxic”. The Activity (MC-38 [14]) was “Active”, the inhibition [15] was “inactive” and the Activity [16] was “Non-Toxic”. The inhibition in vivo at 30 mg/kg (MV4-11 [17]) was 89%, the Activity (MC-38 [18]) was “Active” and the IC50 (MV4-11 [19]) was over 5 µM. For the same compound, the inhibition in vivo at 45 mg/kg (MV4-11 [20]) was 93%, the inhibition [21] was “Active” and the Activity (MC-38 [22]) was “Active”. For the same compound, the IC50 at 4 days [23] was 800 nM, the Activity (MC-38 [24]) was “Active” and the inhibition [25] was “inactive”. The IC50 (MV4-11 [26]) was 400 nM, the Activity (MV4-11 [27]) was “Active” and the Activity [28] was 6.43%. The ΔTm [29] was 8 °C, the inhibition [30] was “Active” and the Activity [31] was “Toxic”. For the same compound, the Activity (MV4-11 [32]) was “Active”, the Activity (MC-38 [33]) was “Active” and the inhibition [34] was “Active”. For the same compound, the Activity (MV4-11 [35]) was “Active” and the Activity (MC-38 [36]) was “Active”.
